Like-named read-outs stand apart in the source and are kept apart here.
Experiments:
Assay type in all cases: biochemical
Cathepsin S = Cathepsin S (Homo sapiens, UniProt P25774); test: Cathepsin S inhibition, fluorogenic peptide substrate kinetic assay; conditions: Cathepsin S inhibition constant, pH5.5, read-out: Ki Cat. S
Outline: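 Ki values derive from apparent constants fitted to progress curves, corrected for competition with substrate via [S] and Km. Kinetics were monitored at 380 nm excitation/450 nm emission, after substrate addition (Ac-HPVK-ACC, 50 μM final) to start the reaction.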

Cathepsin K = target: T1, Cathepsin K (Homo sapiens, UniProt P43235); test: Cathepsin K inhibition, fluorogenic peptide substrate kinetic assay; conditions: Table III; Cathepsin K inhibition constant, pH5.5; read-out: Ki Cat. K
T1 sequence (P43235 115-329): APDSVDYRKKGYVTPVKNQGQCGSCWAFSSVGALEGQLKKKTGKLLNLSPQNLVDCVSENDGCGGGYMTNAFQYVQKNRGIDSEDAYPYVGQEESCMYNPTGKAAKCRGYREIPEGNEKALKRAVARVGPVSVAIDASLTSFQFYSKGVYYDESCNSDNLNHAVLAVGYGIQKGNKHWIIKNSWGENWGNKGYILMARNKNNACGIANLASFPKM
Protocol: (§1) The optimal substrate for cathepsin K, acetyl-lysine-histidine-proline-lysine-amino carbamoyl coumarin, was identified from screening a combinatorial library of fluorogenic peptide substrates (Harris, J. L., B. J. Backes, et al., Proc Natl Acad Sci U S A 2000, 97(14), 7754-9). Kinetic measurements are performed in a total reaction volume of 30 μl in 384-well microtiter plates. […] The reactions are initiated by adding the substrate, acetyl-lysine-histidine-proline-lysine-amino carbamoyl coumarin, to a final concentration of 40 μM. The rate of substrate hydrolysis is measured by monitoring the increase in fluorescence at an excitation wavelength of 380 nm and an emission wavelength of 450 nm that results from cleavage of the aniline bond in the substrate by the enzyme. The apparent inhibition constants for the compounds are determined from the enzyme progress curves (Kuzmic, P., K. C. Elrod, et al., Anal Biochem 2000, 286(1), 45-50) and are then used to calculate the inhibition constants for competitive inhibitors.

Cathepsin L = Cathepsin L (Homo sapiens, UniProt P07711); test: Cathepsin L inhibition, fluorogenic peptide substrate kinetic assay; conditions: Table III; Cathepsin L inhibition constant, pH5.5; read-out: Ki Cat. L
Chain of Cathepsin L (P07711 114-333, species assumed): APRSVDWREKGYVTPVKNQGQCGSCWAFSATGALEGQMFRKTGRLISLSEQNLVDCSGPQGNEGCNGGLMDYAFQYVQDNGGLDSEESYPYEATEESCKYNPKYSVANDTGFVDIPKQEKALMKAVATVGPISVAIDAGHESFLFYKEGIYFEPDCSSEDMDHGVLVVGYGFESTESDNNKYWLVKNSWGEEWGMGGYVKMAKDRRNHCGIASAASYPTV
Protocol: as §1, with “Kinetic” for “The optimal substrate for cathepsin K, acetyl-lysine-histidine-proline-lysine-amino carbamoyl coumarin, was identified from screening a combinatorial library of fluorogenic peptide substrates (Harris, J. L., B. J. Backes, et al., Proc Natl Acad Sci U S A 2000, 97(14), 7754-9). Kinetic”, “acetyl-histidine-lysine-phenylalanine-lysine-amino” for “acetyl-lysine-histidine-proline-lysine-amino”, “20” for “40”

Cathepsin B = Cathepsin B (Homo sapiens, UniProt P07858); test: Cathepsin B inhibition, fluorogenic peptide substrate kinetic assay; conditions: Table III; Cathepsin B inhibition constant, pH5.5; read-out: Ki Cat. B
Protocol: The optimal substrate for cathepsin B, acetyl-histidine-proline-valine-lysine-amino carbamoyl coumarin, was identified from screening a combinatorial library of fluorogenic peptide substrates (Harris, J. L., B. J. Backes, et al., Proc Natl Acad Sci USA 2000, 97(14), 7754-9). Kinetic measurements are performed in a total reaction volume of 30 μl in 384-well microtiter plates. Cathepsin B, at a final concentration of 1.5 nM (active site), is incubated with the compounds at twelve varying concentrations in a buffer containing 100 mM NaAc (pH5.5), 1 mM EDTA, 100 mM NaCl, 0.01% Brij-35 for 20 minutes at room temperature. Control reactions in the absence of inhibitor are performed in replicates of 24. The reactions are initiated by adding the substrate, acetyl-histidine-proline-valine-lysine-amino carbamoyl coumarin, to a final concentration of 10 μM. The rate of substrate hydrolysis is measured by monitoring the increase in fluorescence at an excitation wavelength of 380 nm and an emission wavelength of 450 nm that results from cleavage of the aniline bond in the substrate by the enzyme. The apparent inhibition constants for the compounds are determined from the enzyme progress curves (Kuzmie, P., K. C. Elrod, et al., Anal Biochem 2000, 286(1), 45-50) and are then used to calculate the inhibition constants for competitive inhibitors.

Chain of Cathepsin S (P25774 115-331, species assumed): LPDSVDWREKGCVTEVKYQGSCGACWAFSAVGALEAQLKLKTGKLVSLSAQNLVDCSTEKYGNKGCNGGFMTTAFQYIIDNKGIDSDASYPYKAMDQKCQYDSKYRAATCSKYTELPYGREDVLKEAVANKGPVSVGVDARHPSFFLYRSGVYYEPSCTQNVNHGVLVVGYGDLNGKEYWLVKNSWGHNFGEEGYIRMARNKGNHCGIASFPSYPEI

Ki (Cathepsin S; Table II) | Compound | further results
< 100 nM | C[C@@H](CNc1ccc(OC(F)(F)F)cc1)NC(=O)[C@H](CC1CCCC1)NC(=O)O[C@@H]1CCOC1 [Compound 191, (S,S)-{2-Cyclopentyl-1-[1-methyl-2-(4-trifluoromethoxy-phenylamino)-ethylcarbamoyl]-ethyl}-carbamic acid tetrahydrofuran-3-(R)-yl ester] | Ki (Cathepsin S; Table III): < 100 nM; Ki (Cathepsin K): < 10000 nM; Ki (Cathepsin L): > 10000 nM; Ki (Cathepsin B): > 10000 nM
< 100 nM | C[C@@H](CNc1cc(F)ccc1F)NC(=O)[C@H](CC1CCCCC1)NC(=O)c1ccc(-c2cccc(F)c2)o1 [Compound 91, 5-(3-Fluoro-phenyl)-furan-2-carboxylic acid {2-cyclohexyl-1-(S)-[2-(2,5-difluoro-phenylamino)-1-(S)-methyl-ethylcarbamoyl]-ethyl}-amide] | Ki (Cathepsin S; Table III): < 100 nM; Ki (Cathepsin K): < 10000 nM; Ki (Cathepsin L): < 1000 nM; Ki (Cathepsin B): < 10000 nM
– | COc1cccc(C(=O)N[C@@H](CCC2CCCCC2)C(=O)N[C@H](CN2CCc3cc(F)ccc32)c2ccccc2)c1 [Compound 51, (S,S)-N-{3-Cyclohexyl-1-[2-(5-fluoro-2,3-dihydro-indol-1-yl)-1-phenyl-ethylcarbamoyl]-propyl}-3-methoxy-benzamide] | Ki (Cathepsin B): > 10000 nM
– | COc1ccc(NCC(C)NC(=O)[C@H](CC(C)C)NC(=O)c2cccc(C)c2)cc1 (mixture of isomers) [Compound 21, N-{1-(S)-[2-(4-Methoxy-phenylamino)-1-methyl-ethylcarbamoyl]-3-methyl-butyl}-3-methyl-benzamide] | Ki (Cathepsin B): > 10000 nM
< 100 nM | Cc1nnc(-c2cccc(S(=O)(=O)N[C@@H](CC3CCCCC3)C(=O)NCCN3CCc4cc(F)ccc43)c2)o1 [Compound 233, (S)-3-Cyclohexyl-N-[2-(5-fluoro-2,3-dihydro-indol-1-yl)-ethyl]-2-[3-(5-methyl-[1,3,4]oxadiazol-2-yl)-benzenesulfonylamino]-propionamide] | –
< 1000 nM | C[C@@H](CNc1ccc(S(N)(=O)=O)cc1)NC(=O)[C@H](CC1CCCCC1)NC(=O)c1ccc(-c2cccc(F)c2)o1 [Compound 138, 5-(3-Fluoro-phenyl)-furan-2-carboxylic acid {2-cyclohexyl-1-(S)-[1-(S)-methyl-2-(4-sulfamoyl-phenylamino)-ethylcarbamoyl]-ethyl}-amide] | –
< 100 nM | C[C@@H](CNc1cccc(S(C)(=O)=O)c1)NC(=O)[C@H](CC1CCCCC1)NC(=O)c1ccc(-c2cccc(F)c2)o1 [Compound 88, 5-(3-Fluoro-phenyl)-furan-2-carboxylic acid {2-cyclohexyl-1-(S)-[2-(3-methanesulfonyl-phenylamino)-1-(S)-methyl-ethylcarbamoyl]-ethyl}-amide] | –
< 100 nM | C[C@@H](CN1CCc2cc(F)ccc21)NC(=O)[C@H](CC1CCCCC1)NS(=O)(=O)c1csc(-c2cnco2)c1 [Compound 250, (S,S)-3-Cyclohexyl-N-[2-(5-fluoro-2,3-dihydro-indol-1-yl)-1-methyl-ethyl]-2-(5-oxazol-5-yl-thiophene-3-sulfonylamino)-propionamide] | –
< 10000 nM | COc1ccc(NC[C@@H](C)NC(=O)[C@H](CCC2CCCCC2)NC(=O)c2cc3ccccc3[nH]2)cc1 [Compound 25, 1H-Indole-2-carboxylic acid {3-cyclohexyl-(1S)-[2-(4-methoxy-phenylamino)-(1R)-methyl-ethylcarbamoyl]-propyl}-amide] | –
< 10000 nM | Cn1cncc1S(=O)(=O)N[C@@H](CC1CCCCC1)C(=O)NCCN1CCc2cc(F)ccc21 [Compound 232, (S)-3-Cyclohexyl-N-[2-(5-fluoro-2,3-dihydro-indol-1-yl)-ethyl]-2-(3-methyl-3H-imidazole-4-sulfonylamino)-propionamide] | –
< 1000 nM | C[C@@H](CN1CCc2cc(F)ccc21)NC(=O)[C@H](CC(C)(C)C)NC(=O)Cc1nnn[nH]1 [Compound 179, 4,4-Dimethyl-2-(S)-(2-1H-tetrazol-5-yl-acetylamino)-pentanoic acid [2-(5-fluoro-2,3-dihydro-indol-1-yl)-1-(S)-methyl-ethyl]-amide] | –
< 100 nM | C[C@@H](CNc1ccc(OC(F)(F)F)cc1)NC(=O)[C@H](CC1CCCCC1)NC(=O)c1cnn(-c2ccc(F)cc2)c1 [Compound 142, 1-(4-Fluoro-phenyl)-1H-pyrazole-4-carboxylic acid {2-cyclohexyl-1-(S)-[1-(S)-methyl-2-(4-trifluoromethoxy-phenylamino)-ethylcarbamoyl]-ethyl}-amide] | –
< 100 nM | C[C@@H](C(=O)N[C@@H](CC1CCCCC1)C(=O)NCCN1CCc2cc(F)ccc21)c1ccccc1 [Compound 70, N-{2-cyclohexyl-1-(S)-[2-(5-fluoro-2,3-dihydro-indol-1-yl)-ethylcarbamoyl]-ethyl}-2-(R)-phenyl-propionamide] | –
< 100 nM | O=C(N[C@@H](CC1CCCCC1)C(=O)NCCN1CCc2cc(F)ccc21)C1CC1 [Compound 14, Cyclopropanecarboxylic acid (S)-{2-cyclohexyl-1-[2-(5-fluoro-2,3-dihydro-indol-1-yl)-ethylcarbamoyl]-ethyl}-amide] | –
< 1000 nM | O=C(NCCN1CCc2cc(F)ccc21)[C@H](CC1CCCCC1)NS(=O)(=O)c1cccc2ccccc12 [Compound 228, (S)-3-Cyclohexyl-N-[2-(5-fluoro-2,3-dihydro-indol-1-yl)-ethyl]-2-(naphthalene-1-sulfonylamino)-propionamide] | –
< 100 nM | C[C@@H](CNc1ccc(F)cc1)NC(=O)[C@H](CC1CCCCC1)NC(=O)c1ccc(-c2cccc(F)c2)o1 [Compound 126, 5-(3-Fluoro-phenyl)-furan-2-carboxylic acid {2-cyclohexyl-1-(S)-[2-(4-fluoro-phenylamino)-1-(S)-methyl-ethylcarbamoyl]-ethyl}-amide] | –
< 1000 nM | COc1ccc(N[C@H]2CCCC[C@H]2NC(=O)[C@H](CC(C)C)NC(=O)c2cccc(C)c2)cc1 (mixture of isomers) [Compound 33, N-{1-(S)-[cis-2-(4-Methoxy-phenylamino)-cyclohexylcarbamoyl]-3-methyl-butyl}-3-methyl-benzamide] | –
< 1000 nM | CS(=O)(=O)N1CCC(Oc2ccc(C(=O)N[C@@H](CC3CCCCC3)C(=O)NCCN3CCc4cc(F)ccc43)cc2)CC1 [Compound 68, N-(S)-{2-cyclohexyl-1-[2-(5-fluoro-2,3-dihydro-indol-1-yl)-ethylcarbamoyl]-ethyl}-4-(1-methanesulfonyl-piperidin-4-yloxy)-benzamide] | –
< 100 nM | Cc1nc(C)c(S(=O)(=O)N[C@@H](CC2CCCCC2)C(=O)N[C@@H](C)CN2CCc3cc(F)ccc32)s1 [Compound 210, (S,S)-3-Cyclohexyl-2-(2,4-dimethyl-thiazole-5-sulfonylamino)-N-[2-(5-fluoro-2,3-dihydro-indol-1-yl)-1-methyl-ethyl]-propionamide] | –
< 100 nM | CC(C)(C)C[C@H](NC(=O)OC(C)(C)C)C(=O)N[C@@H](COCc1ccccc1)CN1CCc2cc(F)ccc21 [Compound 154, {1-(S)-[1-(R)-Benzyloxymethyl-2-(5-fluoro-2,3-dihydro-indol-1-yl)-ethylcarbamoyl]-3,3-dimethyl-butyl}-carbamic acid tert-butyl ester] | –

From US20040248887A1, “Inhibitors of cathepsin S” (IRM LLC, priority 2003, published 2004)
